Test results published in patent publication US20250034135A1, “ANTI-APOPTOTIC PROTEIN BCL-2 INHIBITOR, PHARMACEUTICAL COMPOSITION AND USES THEREOF” (HANGZHOU HEALZEN THERAPEUTICS CO., LTD., priority 2021, published 2025).

Target: BCL2 (Homo sapiens (Human), UniProt P10415)
Assay: Molecular level activity test of anti-apoptotic protein BCL2 (HTRF, binding to Bim peptide)
Conditions: HTRF, binding of BCL2 to Bim peptide; read-out: BCL2 nM (inhibitory activity, IC50)
Method in brief: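 HTRF binding of His-tagged recombinant BCL2 to biotin-tagged Bim peptide, compound in 2% DMSO. After 1 h reaction, anti-His and streptavidin-XL665 detection reagents were added and incubated 4 h at room temperature before reading.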

BCL2, sequence (P10415 whole entry): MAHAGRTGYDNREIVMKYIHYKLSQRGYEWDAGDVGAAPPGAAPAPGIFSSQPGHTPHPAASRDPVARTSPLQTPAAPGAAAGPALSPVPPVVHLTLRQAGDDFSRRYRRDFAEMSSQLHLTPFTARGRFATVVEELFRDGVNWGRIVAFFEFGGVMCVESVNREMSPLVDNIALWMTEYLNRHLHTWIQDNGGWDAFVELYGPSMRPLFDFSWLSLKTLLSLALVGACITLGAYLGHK

Row | IC50 | Compound
1 | < 10 nM | COc1ccc(CN2CCN(C3CC4(CCN(c5cc(Oc6cnc7[nH]ccc7c6)c(C(=O)NS(=O)(=O)c6cc([N+](=O)[O-])c(NC[C@H]7COCCO7)c7c6OCO7)cn5)CC4)C3)[C@H](c3ccccc3C(C)C)C2)cc1 [compound 151, N-((7-((((S)-1,4-dioxan-2-yl)methyl)amino)-6-nitrobenzo[d][1,3]dioxocyclopent-4-yl)sulfonyl)-4-((1H-pyrrolo[2,3-b]pyrid-5-yl)ox)-6-(2-((R)-2-(2-isopropylphenyl)-4-(4-methoxybenzyl)piperazin-1-yl)-7-azaspiro[3.5]non-7-yl) nicotinamide]
2 | < 10 nM | COc1ccc(CN2CCN(C3CC4(CCN(c5cc(Oc6cnc7[nH]ccc7c6)c(C(=O)NS(=O)(=O)c6cc([N+](=O)[O-])c(NC[C@H]7COCCO7)c7ocnc67)cc5F)CC4)C3)[C@H](c3ccccc3C(C)C)C2)cc1 [compound 124]
3 | < 10 nM | COc1ccc(CN2CCN(C3CC4(CCN(c5ccc(C(=O)NS(=O)(=O)c6cc([N+](=O)[O-])c(NC[C@H]7CC[C@](C)(O)CC7)c7c6OC(C)(C)O7)c(Oc6cnc7[nH]ccc7c6)c5)CC4)C3)[C@H](c3ccccc3C(C)C)C2)cc1 [compound 163, 2-((1H-pyrrolo[2,3-b]pyrid-5-yl)oxy)-N-((7-((((1r, 4r)-4-hydroxy-4-methylcyclohexyl)methyl)amino)-2,2-dimethyl-6-nitrobenzo[d][1,3]dioxocyclopent-4-yl)sulfonyl)-4-(2-((R)-2-(2-isopropylphenyl)-4-(4-methoxybenzyl)piperazin-1-yl)-7-azaspiro[3.5]non-7-yl)benzamide]
4 | < 10 nM | COc1cc(CN2CCN(C3CC4(CCN(c5ccc(C(=O)NS(=O)(=O)c6cc([N+](=O)[O-])c(NC[C@H]7CC[C@](C)(O)CC7)c7c6OCO7)c(Oc6cnc7[nH]ccc7c6)c5)CC4)C3)[C@H](c3ccccc3C(C)C)C2)cc2cc(C)oc12 [compound 180]
5 | < 10 nM | COc1ccc(CN2CCN(C3CC4(CCN(c5cc(Oc6cnc7[nH]ccc7c6)c(C(=O)NS(=O)(=O)c6cc([N+](=O)[O-])c(NCC7(F)CCOCC7)c7scnc67)cn5)CC4)C3)[C@H](c3ccccc3C(C)C)C2)cc1 [compound 134, (R)-4-((1H-pyrrolo[2,3-b]pyridine-5-yl)oxy)-N-((7-(((4-fluorotetrahydro-2H-pyran-4-yl)methyl)amino)-6-nitrobenzo[d]thiazol-4-yl)sulfonyl)-6-(2-(2-(2-isopropylphenyl)-4-(4-methoxybenzyl)piperazin-1-yl)-7-azaspiro[3.5]non-7-yl) nicotinamide]

Second part, the compound before the results:

Row | Compound | IC50
6 | COc1ccc(CN2CCN(C3CC4(CCN(c5cc(Oc6cnc7[nH]ccc7c6)c(C(=O)NS(=O)(=O)c6cc([N+](=O)[O-])c(NCC7(F)CCN(C(C)C)CC7)c7[nH]cnc67)cn5)CC4)C3)C(c3ccccc3C(C)C)C2)cc1 (stereo not shown) [compound 069, 4-((1H-pyrrolo[2,3-b]pyrid-5-yl)oxy)-N-((7-(((4-fluoro-1-isopropylpiperid-4-yl)methyl)amino)-6-nitro-1H-benzo[d]imidazol-4-yl)sulfonyl)-6-(2-(2-(2-isopropylphenyl)-4-(4-methoxybenzyl)piperazin-1-yl)-7-azaspiro[3.5]non-7-yl) nicotinamide] | < 10 nM
7 | COc1ccc(CN2CCN(C3CC4(CCN(c5cc(Oc6cnc7[nH]ccc7c6)c(C(=O)NS(=O)(=O)c6cc([N+](=O)[O-])c(NC[C@H]7CC[C@](C)(O)CC7)c7[nH]cnc67)cn5)CC4)C3)C(c3ccccc3C(C)C)C2)cc1 (stereo partly shown) [compound 067, 4-((1H-pyrrolo[2,3-b]pyrid-5-yl)oxy)-N-((7-((((1r,4r)-4-hydroxy-4-methylcyclohexyl)methyl)amino)-6-nitro-1H-benzo[d]imidazol-4-yl)sulfonyl)-6-(2-(2-(2-isopropylphenyl)-4-(4-methoxybenzyl)piperazin-1-yl)-7-azaspiro[3.5]non-7-yl) nicotinamide] | < 10 nM
8 | CC(C)c1ccccc1C1CN(C(C)C)CCN1C1CC2(C1)CN(c1ccc(C(=O)NS(=O)(=O)c3cc([N+](=O)[O-])c(NCC4(F)CCN(C(C)C)CC4)c4[nH]cnc34)c(Oc3cnc4[nH]ccc4c3)c1)C2 (stereo not shown) [compound 042, 2-((1H-pyrrolo[2,3-b]pyrid-5-yl)oxy)-N-((7-(((4-fluoro-1-isopropylpiperid-4-yl)methyl)amino)-6-nitro-1H-benzo[d]imidazol-4-yl)sulfonyl)-4-(6-(4-isopropyl-2-(2-isopropylphenyl)piperazin-1-yl)-2-azaspiro[3.3]hept-2-yl)benzamide] | < 10 nM
9 | CC(C)c1ccccc1[C@@H]1CCCN1C1CC2(CCN(c3cc(N4CCOc5nc6[nH]ccc6cc54)c(C(=O)NS(=O)(=O)c4cc([N+](=O)[O-])c(NCC5(F)CCN(C(C)C)CC5)c5[nH]cnc45)cn3)CC2)C1 [compound 083, (S)-4-(2,3-dihydropyrrolo[3′,2′:5,6]pyridino[2,3-b][1,4]oxazin-1 (6H)-yl)-N-((7-(((4-fluoro-1-isopropylpiperid-4-yl)methyl)amino)-6-nitro-1H-benzo[d]imidazol-4-yl)sulfonyl)-6-(2-(2-(2-isopropylphenyl)pyrrolidin-1-yl)-7-azaspiro[3.5]non-7-yl) nicotinamide] | < 10 nM
10 | CC(C)c1ccccc1[C@@H]1CCCN1C1CC2(CCN(c3cc(Oc4cnc5[nH]ccc5c4)c(C(=O)NS(=O)(=O)c4cc([N+](=O)[O-])c(NC[C@H]5CC[C@](C)(O)CC5)c5[nH]cnc45)cc3F)CC2)C1 [compound 014, 2-((1H-pyrrolo[2,3-b]pyrid-5-yl)oxy)-5-fluoro-N-((7-((((1r,4r)-4-hydroxy-4-methylcyclohexyl)methyl)amino)-6-nitro-1H-benzo[d]imidazol-4-yl)sulfonyl)-4-(2-((S)-2-(2-isopropylphenyl)pyrrolidin-1-yl)-7-azaspiro[3.5]non-7-yl)benzamide] | < 10 nM
11 | COc1ccc(CN2CCN(C3CC4(CCN(c5cc(Oc6cnc7[nH]ccc7c6)c(C(=O)NS(=O)(=O)c6cc([N+](=O)[O-])c(NCC7(F)CCOCC7)c7c6OCCO7)cc5F)CC4)C3)[C@H](c3ccccc3C(C)C)C2)cc1 [compound 110, (R)-2-((1H-pyrrolo[2,3-b]pyrid-5-yl)oxy)-5-fluoro-N-((8-(((4-fluorotetrahydro-2H-pyran-4-yl)methyl)amino)-7-nitro-2,3-dihydrobenzo[b][1,4]dioxane-5yl)sulfonyl)-4-(2-(2-(2-isopropylphenyl)-4-(4-methoxybenzyl)piperazin-1-yl)-7-azaspiro[3.5]non-7-yl)benzamide] | < 10 nM
12 | CC(C)c1ccccc1[C@@H]1CCCN1C1CC2(CCN(c3cc(Oc4cnc5[nH]ccc5c4)c(C(=O)NS(=O)(=O)c4cc([N+](=O)[O-])c(NCC5(F)CCN(C(C)C)CC5)c5[nH]cnc45)cc3F)CC2)C1 [compound 022, (S)-2-((1H-pyrrolo[2,3-b]pyrid-5-yl)oxy)-5-fluoro-N-((7-(((4-fluoro-1-isopropylpiperid-4-yl)methyl)amino)-6-nitro-1H-benzo[d]imidazol-4-yl)sulfonyl)-4-(2-(2-(2-isopropylphenyl)pyrrolidin-1-yl)-7-azaspiro[3.5]non-7-yl)benzamide] | < 10 nM
13 | (S)-2-((1H-pyrrolo[2,3-b]pyrid-5-yl)oxy)-N-(7-(((4-fluorotetrahydro-2H-pyran-4-yl)methyl)amino)-6-nitro-1H-benzo[d]imidazol-4-yl)sulfonyl)-4-(2-(2-(2-isopropylphenyl)pyrrolidin-1-yl)-7-azaspiro[3.5]non-7-yl)benzamide [compound 005] | < 10 nM
